Measurements from article PMC10954736, “The evolutionary origin of naturally occurring intermolecular Diels-Alderases from Morus alba” (Nature Communications, 2024).
pKi: −log10 of the molar value.

Legend:
MaDA1 = biological target: T1, MaDA1 (Morus alba, UniProt A0AAN0NNN7); test: UPLC product assay; format: biochemical; settings: oxidative cyclisation to moracin D; 20 mM Tris-HCl pH 8.0, 50 °C
T1 construct: N-terminal 6xHis-SUMO tag, Sf9 baculovirus; tag removed by TEV protease for crystallisation; dimer in crystal
T1 sequence (A0AAN0NNN7 24-539 limits assumed): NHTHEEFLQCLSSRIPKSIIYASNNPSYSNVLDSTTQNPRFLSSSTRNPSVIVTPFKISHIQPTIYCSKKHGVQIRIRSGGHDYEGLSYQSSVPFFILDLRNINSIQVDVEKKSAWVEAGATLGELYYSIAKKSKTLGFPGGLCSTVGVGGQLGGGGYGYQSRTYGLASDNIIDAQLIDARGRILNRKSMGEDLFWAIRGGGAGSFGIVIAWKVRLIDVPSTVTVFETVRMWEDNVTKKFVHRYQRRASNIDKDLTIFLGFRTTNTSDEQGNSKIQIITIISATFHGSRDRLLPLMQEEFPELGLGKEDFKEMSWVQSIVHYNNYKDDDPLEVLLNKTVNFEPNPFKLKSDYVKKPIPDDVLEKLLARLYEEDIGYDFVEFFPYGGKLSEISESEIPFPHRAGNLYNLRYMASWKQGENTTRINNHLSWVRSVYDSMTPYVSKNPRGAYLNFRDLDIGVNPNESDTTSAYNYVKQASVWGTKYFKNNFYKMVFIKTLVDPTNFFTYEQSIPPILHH

ancDADS = biological target: T2, ancDADS; test: Lineweaver-Burk, UPLC product quantification; format: biochemical; settings: competitive against moracin C (20–150 μM); 20 mM Tris-HCl pH 8.0; compound is also an alternative substrate
T2 construct: N-terminal 6xHis-SUMO tag, Sf9 baculovirus

[1] = biological target: Morus alba Diels-Alderase MaDA1 (Morus alba); test: crystal structure; untagged MaDA1 at about 10 mg/mL, sitting drop vapor diffusion at 18 °C, 0.1 M Bis-Tris pH 5.5, 25% PEG3350

**Q.** `CC(C)=CCc1c(O)cc(-c2cc3ccc(O)cc3o2)cc1O` [compound 1, moracin C] was tested. Which UPLC product assay (MaDA1) did it give?
**A.** two DAs (MaDA1 and MaDA4) and two DSs (MaDS1 and MaDS6) exhibit functional promiscuity

**Q.** With `CC(C)=CCc1c(O)ccc(C(=O)/C=C/c2ccc(O)cc2O)c1O` [compound 4, morachalcone A] as the molecule, how does the pKi (ancDADS) read?
**A.** 5.13

**Q.** How did the stoichiometry N [1] turn out when “Morus alba Diels-Alderase MaDA1 (enzyme)” was run?
**A.** 2
